Source: patent EP2837626A1, “Indolinone derivatives as GRK5 modulators” (Max-Planck-Gesellschaft zur Förderung der Wissenschaften …, priority 2013, dated 2015)
pIC50: −log10 of the molar value. Read-outs that look alike come from different tables or passages of the source.

Key:
[1] = target: T1, GRK5 (Homo sapiens, UniProt P34947); experiment: IC50 determination of compounds inhibiting GRK5 by Millipore KinaseProfiler (radiometric filtration binding assay); format: biochemical; settings: 2 mg/mL casein, 40 minutes at room temperature
T1 construct: purchased Millipore
T1 sequence (P34947 whole entry): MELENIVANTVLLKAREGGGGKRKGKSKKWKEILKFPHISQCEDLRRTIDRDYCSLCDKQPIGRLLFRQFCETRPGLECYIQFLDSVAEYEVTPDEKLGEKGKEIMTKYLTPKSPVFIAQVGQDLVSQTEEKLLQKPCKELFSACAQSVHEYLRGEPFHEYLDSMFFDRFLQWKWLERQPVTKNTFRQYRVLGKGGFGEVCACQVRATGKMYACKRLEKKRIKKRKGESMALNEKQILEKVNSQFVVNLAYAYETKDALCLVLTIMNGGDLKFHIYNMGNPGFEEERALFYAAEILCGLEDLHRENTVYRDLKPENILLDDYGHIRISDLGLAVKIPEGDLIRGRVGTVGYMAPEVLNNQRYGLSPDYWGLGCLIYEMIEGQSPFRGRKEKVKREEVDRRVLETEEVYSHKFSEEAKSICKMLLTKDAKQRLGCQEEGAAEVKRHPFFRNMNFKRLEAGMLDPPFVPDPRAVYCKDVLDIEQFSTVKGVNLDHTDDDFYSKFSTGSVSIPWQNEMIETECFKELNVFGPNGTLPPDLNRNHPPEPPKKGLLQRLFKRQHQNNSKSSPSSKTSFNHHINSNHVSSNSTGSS
Description: IC50 values are determined by a radiometric based filtration binding assay, namely Millipore KinaseProfiler™. GRK5 is incubated with 8 mM MOPS pH 7.0, 0.2 mM EDTA, 2 mg/mL casein, 10 mM MgAcetate and […] (specific activity approx. 500 cpm/pmol, concentration as required). The reaction is initiated by the addition of the MgATP mix. After incubation for 40 minutes at room temperature, the reaction is stopped by the addition of 3 % phosphoric acid solution. 10 µL of the reaction is then spotted onto a P30 filtermat and washed three times for 5 minutes in 75 mM phosphoric acid and once in methanol prior to drying and scintillation counting.

[2] = target: T2, full length GRK5 (Homo sapiens, UniProt P34947); experiment: IC50 determination of compounds inhibiting GRK5 by ADP Glo Kinase Assay technology (Promega); format: biochemical
T2 construct: 6/2 fold concentrated full length GRK5 (Millipore, #14-714) in reaction buffer is added to each well; purchased Millipore 14-714
T2 sequence (P34947 whole entry): as above

[3] = 20 nM GRK5, 18.7 µM ATP, 10 µM casein, 12 concentrations, triplicates, read-out: GRK5 IC50

Row | Structure (SMILES) | pIC50 [1] | pIC50 [2, 3] | pIC50 ([2]; read-out: GRK5 IC50, 20 nM GRK5, 18.7 µM ATP, 10 µM casein, 12 concentrations, triplicates)
1 | CC[C@@H](NC(=O)c1ccc2c(c1)/C(=C/c1[nH]c(C)c(C(=O)N3CCC[C@H]3CN3CCCC3)c1C)C(=O)N2)c1ccccc1 [Compound 46, (3Z)-3-[(3,5-dimethyl-4-{[(2S)-2-(pyrrolidin-1-ylmethyl)pyrrolidin-1-yl]carbonyl}-1H-pyrrol-2-yl)methylene]-2-oxo-N-[(1R)-1-phenylpropyl]indoline-5-carboxamide] | > 5.30 | > 5.30 | –
2 | CC[C@H](NC(=O)c1ccc2c(c1)/C(=C/c1[nH]c(C)c(C(=O)N3CCC[C@H]3CN3CCCC3)c1C)C(=O)N2)c1ccccc1 [Compound 47, (3Z)-3-[(3,5-dimethyl-4-{[(2S)-2-(pyrrolidin-1-ylmethyl)pyrrolidin-1-yl]carbonyl}-1H-pyrrol-2-yl)methylene]-2-oxo-N-[(1S)-1-phenylpropyl]indoline-5-carboxamide] | 4.70 to 5.30 | 4.70 to 5.30 | –
3 | CC[C@@H](NC(=O)c1ccc2c(c1)/C(=C/c1[nH]c(C)c(C(=O)N3CCC[C@@H]3CN3CCCC3)c1C)C(=O)N2)c1ccccc1 [Compound 48, (3Z)-3-[(3,5-dimethyl-4-{[(2R)-2-(pyrrolidin-1-ylmethyl)pyrrolidin-1-yl]carbonyl}-1H-pyrrol-2-yl)methylene]-2-oxo-N-[(1R)-1-phenylpropyl]indoline-5-carboxamide] | > 5.30 | > 5.30 | –
4 | CC[C@H](NC(=O)c1ccc2c(c1)/C(=C/c1[nH]c(C)c(C(=O)N3CCC(N4CCN(C)CC4)CC3)c1C)C(=O)N2)c1ccccc1 [Compound 52, (3Z)3-[(3,5-dimethyl-4-{[4-(4-methylpiperazin-1-yl)piperidin-1-yl]carbonyl}-1H-pyrrol-2-yl)methylene]-2-oxo-N-[(1S)-1-phenylpropyl]indoline-5-carboxamide] | < 4.52 | < 4.52 | –
5 | CC[C@@H](NC(=O)c1ccc2c(c1)/C(=C/c1[nH]c(C)c(C(=O)N3CCC(N4CCN(C)CC4)CC3)c1C)C(=O)N2)c1ccccc1 [Compound 53, (3Z)-3-[(3,5-dimethyl-4-{[4-(4-methylpiperazin-1-yl)piperidin-1-yl]carbonyl}-1H-pyrrol-2-yl)methylene]-2-oxo-N-[(1R)-1-phenylpropyl]indoline-5-carboxamide] | > 5.30 | 4.70 to 5.30 | –
6 | Cc1[nH]c(/C=C2\C(=O)Nc3ccc(C(=O)N[C@@H](C)c4ccccc4)cc32)c(C)c1C(=O)N1CCCCC1 [Compound 54, (3Z)-3-{[3,5-dimethyl-4-(piperidin-1-ylcarbonyl)-1H-pyrrol-2-yl]methylene}-2-oxo-N-[(1S)-1-phenylethyl]indoline-5-carboxamide] | < 4.52 | < 4.52 | –
7 | Cc1[nH]c(/C=C2\C(=O)Nc3ccc(C(=O)N[C@H](C)c4cccc(Cl)c4)cc32)c(C)c1C(=O)N1CCCCC1 [Compound 55, (3Z)-N-[(1R)-1-(3-chlorophenyl)ethyl]-3-{[3,5-dimethyl-4-(piperidin-1-ylcarbonyl)-1H-pyrrol-2-yl]methylene}-2-oxoindoline-5-carboxamide] | > 5.30 | > 5.30 | –
8 | Cc1[nH]c(/C=C2\C(=O)Nc3ccc(C(=O)N[C@@H](C)c4cccc(Cl)c4)cc32)c(C)c1C(=O)N1CCCCC1 [Compound 56, (3Z)-N-[(1S)-1-(3-chlorophenyl)ethyl]-3-{[3,5-dimethyl-4-(piperidin-1-ylcarbonyl)-1H-pyrrol-2-yl]methylene}-2-oxoindoline-5-carboxamide] | < 4.52 | < 4.52 | –
9 | CC[C@H](NC(=O)c1ccc2c(c1)/C(=C/c1[nH]c(C)c(C(=O)N3CCCCC3)c1C)C(=O)N2)c1ccccc1 [Compound 57, (3Z)-3-{[3,5-dimethyl-4-(piperidin-1-ylcarbonyl)-1H-pyrrol-2-yl]methylene}-2-oxo-N-[(1S)-1-phenylpropyl]indoline-5-carboxamide] | < 4.52 | < 4.52 | –
10 | CC[C@H](NC(=O)c1ccc2c(c1)/C(=C/c1[nH]c(C)c(C(=O)NCCN(CC)CC)c1C)C(=O)N2)c1ccccc1 [Compound 62, (3Z)-3-[(4-{[2-(diethylamino)ethyl]carbamoyl}-3,5-dimethyl-1H-pyrrol-2-yl)methylene]-2-oxo-N-[(1S)-1-phenylpropyl]indoline-5-carboxamide] | < 4.52 | < 4.52 | –
11 | CC[C@@H](NC(=O)c1ccc2c(c1)/C(=C/c1[nH]c(C)c(C(=O)N3CCCCC3)c1C)C(=O)N2)c1ccccc1 [Compound 63, (3Z)-3-{[3,5-dimethyl-4-(piperidin-1-ylcarbonyl)-1H-pyrrol-2-yl]methylene}-2-oxo-N-[(1R)-1-phenylpropyl]indoline-5-carboxamide] | > 5.30 | > 5.30 | –
12 | Cc1[nH]c(/C=C2\C(=O)Nc3ccc(C(=O)N[C@@H](C)c4ccc(F)cc4)cc32)c(C)c1C(=O)N1CCCCC1 [Compound 64, (3Z)-3-{[3,5-dimethyl-4-(piperidin-1-ylcarbonyl)-1H-pyrrol-2-yl]methylene}-N-[(1S)-1-(4-fluorophenyl)ethyl]-2-oxoindoline-5-carboxamide] | < 4.52 | < 4.52 | –
13 | COc1ccc([C@H](C)NC(=O)c2ccc3c(c2)/C(=C/c2[nH]c(C)c(C(=O)N4CCCCC4)c2C)C(=O)N3)cc1 [Compound 65, (3Z)-3-{[3,5-dimethyl-4-(piperidin-1-ylcarbonyl)-1H-pyrrol-2-yl]methylene}-N-[(1S)-1-(4-methoxyphenyl)ethyl]-2-oxoindoline-5-carboxamide] | < 4.52 | > 5.30 | –
14 | COc1ccc([C@@H](C)NC(=O)c2ccc3c(c2)/C(=C/Nc2ccc(CN4CCCCC4)cc2)C(=O)N3)cc1 [Compound 70, (3Z)-N-[(1R)-1-(4-methoxyphenyl)ethyl]-2-oxo-3-({[4-(piperidin-1-ylmethyl)phenyl]amino}methylene)indoline-5-carboxamide] | > 5.30 | – | > 5.30
15 | C[C@@H](c1ccccc1)N(C)C(=O)c1ccc2c(c1)/C(=C/Nc1ccc(CN3CCCCC3)cc1)C(=O)N2 [Compound 71, (3Z)-N-methyl-2-oxo-N-[(1S)-1-phenylethyl]-3-({[4-(piperidin-1-ylmethyl)phenyl]amino}methylene)indoline-5-carboxamide] | > 5.30 | > 5.30 | –
16 | Cc1ccc([C@@H](C)NC(=O)c2ccc3c(c2)/C(=C/Nc2ccc(CN4CCCCC4)cc2)C(=O)N3)cc1 [Compound 72, (3Z)-N-[(1R)-1-(4-methylphenyl)ethyl]-2-oxo-3-({[4-(piperidin-1-ylmethyl)phenyl]amino}methylene)indoline-5-carboxamide] | > 5.30 | > 5.30 | –
17 | C[C@@H](NC(=O)c1ccc2c(c1)/C(=C/Nc1ccc(CN3CCCCC3)cc1)C(=O)N2)c1ccc(Cl)cc1 [Compound 73, (3Z)-N-[(1R)-1-(4-chlorophenyl)ethyl]-2-oxo-3-({[4-(piperidin-1-ylmethyl)phenyl]amino}methylene)indoline-5-carboxamide] | > 5.30 | > 5.30 | –
